According to US12577230B2, “2-(3-pyridin-2-yl-4-quinolin-4-yl-pyrazol-1-yl)- acetamide derivatives as inhibitors of transforming growth factor-beta receptor I/ALK5” (AGOMAB SPAIN S.L.U., priority 2020, dated 2026):

How the values were obtained:
Human TGFβR-1 = molecular target: T1, Human TGFβR-1 (Homo sapiens, UniProt P36897); assay: In vitro enzyme assay: inhibition of TGFβR-1 (ADP-Glo kinase assay); assay type: biochemical; settings: TGFβR-1 kinase 50 ng/well, 50 μM ATP, 120 min RT
T1 construct: purchased Promega V4092
T1 sequence (P36897 34-503): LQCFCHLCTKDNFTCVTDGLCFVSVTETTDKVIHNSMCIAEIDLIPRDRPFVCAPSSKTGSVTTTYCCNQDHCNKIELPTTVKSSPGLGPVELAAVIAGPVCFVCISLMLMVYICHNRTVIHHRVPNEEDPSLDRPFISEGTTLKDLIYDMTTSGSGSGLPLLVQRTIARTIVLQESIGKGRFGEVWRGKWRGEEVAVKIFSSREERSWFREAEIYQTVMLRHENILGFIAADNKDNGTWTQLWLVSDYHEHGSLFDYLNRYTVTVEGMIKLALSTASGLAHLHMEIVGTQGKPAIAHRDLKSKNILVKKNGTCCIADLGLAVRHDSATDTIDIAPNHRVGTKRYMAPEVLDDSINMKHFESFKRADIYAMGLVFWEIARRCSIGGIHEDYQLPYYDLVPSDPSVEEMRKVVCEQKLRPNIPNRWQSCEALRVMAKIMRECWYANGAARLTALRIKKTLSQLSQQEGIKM
Excerpt: In the present application are used the following abbreviations, with the corresponding definitions: • AcOH: Acetic Acid • ACVR2B: activin A receptor, type IIB • ALKn: activin receptor-like kinase n • ATP: adenosin triphosphate • Boc2O: tert-butyl dicarbonate • Boc: tert-Butoxycarbonyl • Clint: Intrinsic clearance • DIPEA: N,N-Diisopropylethylamine • DMA: Dimethylacetamide • DMAP: 4-Dimethylaminopyridine • DMF: N,N-Dimethylformamide • DMSO: Dimethyl sulfoxide • EDCl: N-(3-Dimethylaminopropyl)-N′-ethylcarbodiimide) • Et3N: Triethylamine • EtOAc: Ethyl acetate • EtOH: ethanol • FBS: Fetal bovine serum • H: hour • HATU: 1-[Bis(dimethylamino)methylene]-1H-1,2,3-triazolo[4,5-b]pyridinium 3-oxide hexafluorophosphate • HOBT: Hydroxybenzotriazole • HPLC: High-performance liquid chromatography • ^1H-NMR: Proton nuclear magnetic resonance • K2EDTA: ethylenediaminetetracetic acid dipotassium salt • LC: Liquid chromatography • LiHMDS: Lithium bis(trimethylsilyl)amide • LLOQ: lower limit of quantification • MeCN: Acetonitrile • MeOH: Methanol • Min: minutes • MS: Mass spectroscopy • MTBE: Methyl tert-butyl ether • NBS: N-Bromosuccinimide • NaCMC: Sodium carboxymethyl cellulose • Rt: retention time • RT: room temperature • Sem: 2-(Trimethylsilyl)ethoxymethyl • TGFβ: transforming growth factor-β • THF: Tetrahydrofuran • THF:EtOH: Tetrahydrofuran:ethanol • UPLC: ultra high-performance liquid chromatography • UV: Ultraviolet Pharmacological Activity In Vitro Enzyme Assay: Inhibition of TGFβR-1 Human TGFβR-1 inhibition experiments were carried out in a white 384-microplate low flange (Corning 3572) with ADP-Glo kinase Assay Kit (Promega V9101) and TGFβR-1 Kinase Enzyme System (Promega V4092). Test compounds and standard Galunisertib (Cayman 15312), 50 ng/well TGFβR-1 kinase and 50 μM ATP were added in a final volume of 10 μL/well, using Reaction buffer supplied by kit as assay buffer. The reaction mixture was incubated in gentle shaking for 120 min at RT, after incubation of 10 μL of ADP-Glo Reagent was added and incubated in gentle shaking for 40 min at RT. 20 μL of Kinase Detection Reagent was added and plate was incubated in gentle shaking for 30 min at RT. Luminescence (1000 ms) was measured in Perkin Elmer EnSpire Multimode plate reader. Results

ALK-5 = molecular target: T2, ALK-5 (Homo sapiens, UniProt P36897); assay: Determination of the intracellular TGF-beta kinase activity (ALK-5), AlphaLISA SureFire p-SMAD3 in A549 cells; assay type: cell-based; settings: A549 cell line, TGF-β2 activated, p-SMAD3(Ser423/425)
T2 construct: endogenous in cells; host or cells: A549
T2 sequence (P36897 34-503): T1 sequence (P36897 34-503)
Method: Determination of the Intracellular TGF-Beta Kinase Activity (ALK-5)
The experiments were carried out in A549 cell line. 30000 cells were seeded in 200 μl of culture medium (Sigma D6046) supplemented with L-Glutamine (Sigma G7513), Penicillin/Streptomycin (Invitrogen 11058) and FBS (Sigma F9665) on a 96 wells microplate (Becton Dickinson 353072). After 16 hours medium was changed to serum free medium. Galunisertib, as inhibitor ligand (Cayman CAY-15312) and recombinant Human TGF-β2 (R&D Systems 302-B2-002) as activator of the ALK-5, were added in their corresponding wells and incubated following the instructions of the Alphascreen AlphaLISA@SureFire® Ultra™ p-SMAD3(Ser423/425) Kit (Perkin Elmer ALSU-PSM3-A500).

[1] = Determination of plasma stability in human plasma; assay type: in vitro ADME; settings: 10 μM, 37° C.
Method: Determination of Plasma Stability of Some Compounds
Human plasma pooled from healthy donors extracted in citrate tubes was employed in the assay. Briefly, plates containing 10 μM compounds in plasma (total volume: 50 μL) were incubated at 37° C. at the different times (0, 30, 120 and 360 min). Then 100 μl Acetonitrile were added for precipitating plasma protein, and the plate was centrifuged at 46000 g for 60 min at 5° C. Supernatant was taken and analysed by UPLC/MS/MS for sample quantification. Stationary phase: Reverse phase Acquity UPLC® BEH C18 1.7 μm (2.1 mm×50 mm) (Waters). Mobile phase: 0.1% Formic acid water/0.1% formic acid in acetonitrile.
Flow: 0.6 ml/min. The chromatographic equipment employed was an UPL QSM Waters Acquity. Compound concentrations were calculated from the MS peak areas.

| Structure (SMILES) | IC50 (Human TGFβR-1) | IC50 (ALK-5) | remaining percentage 0 min [1] | remaining percentage 30 min [1] | remaining percentage 120 min [1] | remaining percentage 360 min [1] |
| --- | --- | --- | --- | --- | --- | --- |
| Cc1cccc(-c2nn(CC(=O)Nc3cc(F)cc(C(=O)OCCN(C)C)c3)cc2-c2ccnc3ccccc23)n1 [Example 1, 2-(dimethylamino)ethyl 3-fluoro-5-(2-(3-(6-methylpyridin-2-yl)-4-(quinolin-4-yl)-1H-pyrazol-1-yl)acetamido)benzoate] | < 100 nM | < 1000 nM | 100% | 0% | 0% | 0% |
| Cc1cccc(-c2nn(CC(=O)Nc3ccc(C(=O)OCCN(C)C)nc3)cc2-c2ccnc3ccccc23)n1 [Example 5, 2-(dimethylamino)ethyl 5-(2-(3-(6-methylpyridin-2-yl)-4-(quinolin-4-yl)-1H-pyrazol-1-yl)acetamido)picolinate] | < 100 nM | > 1000 nM | 100% | 10% | 0% | 0% |
| CCN(CC)CCOC(=O)c1cc(F)cc(NC(=O)Cn2cc(-c3ccnc4ccccc34)c(-c3cccc(C)n3)n2)c1 [Example 7, 2-(diethylamino)ethyl 3-fluoro-5-(2-(3-(6-methylpyridin-2-yl)-4-(quinolin-4-yl)-1H-pyrazol-1-yl)acetamido)benzoate] | 100 to 250 nM | < 1000 nM | 100% | 16.0% | 3.3% | 0.1% |
| Cc1cccc(-c2nn(CC(=O)Nc3cc(F)cc(C(=O)OCC4CCN(C)CC4)c3)cc2-c2ccnc3ccccc23)n1 [Example 9, (1-methylpiperidin-4-yl)methyl 3-fluoro-5-(2-(3-(6-methylpyridin-2-yl)-4-(quinolin-4-yl)-1H-pyrazol-1-yl)acetamido)benzoate] | < 100 nM | < 1000 nM | 100% | 16.6% | 3.1% | 0% |
| CNCCOC(=O)c1cc(F)cc(NC(=O)Cn2cc(-c3ccnc4ccccc34)c(-c3cccc(C)n3)n2)c1 [Example 15, 2-(methylamino)ethyl 3-fluoro-5-(2-(3-(6-methylpyridin-2-yl)-4-(quinolin-4-yl)-1H-pyrazol-1-yl)acetamido)benzoate] | < 100 nM | > 1000 nM |  |  |  |  |
| Cc1cccc(-c2nn(CC(=O)Nc3cc(F)cc(C(=O)OCCN4CCNCC4)c3)cc2-c2ccnc3ccccc23)n1 [Example 19, 2-(piperazin-1-yl)ethyl 3-fluoro-5-(2-(3-(6-methylpyridin-2-yl)-4-(quinolin-4-yl)-1H-pyrazol-1-yl)acetamido)benzoate] | < 100 nM | < 1000 nM | 100% | 1.9% | 0.3% | 0% |
| Cc1cccc(-c2nn(CC(=O)Nc3cc(F)cc(C(=O)OC4CCNCC4)c3)cc2-c2ccnc3ccccc23)n1 [Example 21, piperidin-4-yl 3-fluoro-5-(2-(3-(6-methylpyridin-2-yl)-4-(quinolin-4-yl)-1H-pyrazol-1-yl)acetamido)benzoate] | < 100 nM | > 1000 nM | 100% | 74.3% | 34.2% | 6.3% |
